Reference: ChEMBL document CHEMBL6092226, “Tilting the Scales toward EGFR Mutant Selectivity: Expanding the Scope of Bivalent "Type V" Kinase Inhibitors” (J Med Chem, 2024)

What was measured:
BaF3 [1] = assay: cells; details: Mus musculus, BaF3, 72 h
BaF3 [2] = assay: cells; details: Mus musculus, BaF3, 72 h; remark: listed apart in the source
BaF3 [3] = assay type: functional, cell-based; details: Mus musculus, BaF3, 72 h
BaF3 [4] = assay: cells; details: Mus musculus, BaF3, 72 h; remark: listed apart in the source
BaF3 [5] = assay: Antiproliferative activity against mouse BaF3 cells harboring EGFR exon 19del mutant incubated for 72 hrs by MTT assay; assay type: functional, cell-based; details: BaF3, 72 h
HCC827 = assay: cells; details: Homo sapiens, HCC827, 72 h
[6] = target: T1, Epidermal growth factor receptor (Homo sapiens, UniProt P00533, C797S/L858R/T790M); set-up: species or system Sf9
[7] = target: T2, Epidermal growth factor receptor (Homo sapiens, UniProt P00533, L858R); assay: Reversible inhibition of EGFR L858R mutant (696 to 1022 residues) (unknown origin) extracted from baculovirus infected Sf9 insect cells in presence of ATP by HTRF assay
[8] = target: T3, Epidermal growth factor receptor (Homo sapiens, UniProt P00533); assay: Reversible inhibition of wildtype EGFR (696 to 1022 residues) (unknown origin) extracted from baculovirus infected Sf9 insect cells in presence of ATP by HTRF assay
[9] = target: T4, Epidermal growth factor receptor (Homo sapiens, UniProt P00533, L858R/T790M); assay: Reversible inhibition of EGFR L858R/T790M mutant (696 to 1022 residues) (unknown origin) extracted from baculovirus infected Sf9 insect cells in presence of ATP by HTRF assay
cells = details: Homo sapiens, NCI-H1975, 72 h
[10] = target: T1, Epidermal growth factor receptor; set-up: species or system Sf9; remark: listed apart in the source
[11] = target: T4, Epidermal growth factor receptor; assay: Time-dependent irreversible inhibition of GST-tagged EGFR L858R/T790M mutant cytoplasmic domain (669 to 1210 residues) (unknown origin) assessed as apparent inactivation constant (Ki) incubated for 240 mins in presence of ATP by fluorescence based analysis; details: read-out: Ki(app)
[12] = target: T2, Epidermal growth factor receptor; assay: Time-dependent irreversible inhibition of GST-tagged EGFR L858R mutant cytoplasmic domain (669 to 1210 residues) (unknown origin) assessed as apparent inactivation constant (Ki) incubated for 240 mins in presence of ATP by fluorescence based analysis; details: read-out: Ki(app)
[13] = target: T3, Epidermal growth factor receptor; assay: Time-dependent irreversible inhibition of N-terminal GST-tagged wildtype human EGFR cytoplasmic domain (669 to 1210 residues) extracted from Sf21 insect cells assessed as apparent inactivation constant (Ki) incubated for 240 mins in presence of ATP by fluorescence based analysis; details: read-out: Ki(app)
[14] = Drug metabolism in pooled male human liver microsomes assessed as thioether oxidation mediated metabolite formation at 150 uM measured after 2 hrs by LC-MS analysis; assay type: ADME, Microsome
[15] = Metabolic stability in pooled male human liver microsomes at 150 uM measured after 2 hrs in presence of NADPH regenerating system by LC-MS analysis; assay type: ADME, Microsome

T1 sequence (P00533 25-1210 T790M/C797S/L858R limits assumed): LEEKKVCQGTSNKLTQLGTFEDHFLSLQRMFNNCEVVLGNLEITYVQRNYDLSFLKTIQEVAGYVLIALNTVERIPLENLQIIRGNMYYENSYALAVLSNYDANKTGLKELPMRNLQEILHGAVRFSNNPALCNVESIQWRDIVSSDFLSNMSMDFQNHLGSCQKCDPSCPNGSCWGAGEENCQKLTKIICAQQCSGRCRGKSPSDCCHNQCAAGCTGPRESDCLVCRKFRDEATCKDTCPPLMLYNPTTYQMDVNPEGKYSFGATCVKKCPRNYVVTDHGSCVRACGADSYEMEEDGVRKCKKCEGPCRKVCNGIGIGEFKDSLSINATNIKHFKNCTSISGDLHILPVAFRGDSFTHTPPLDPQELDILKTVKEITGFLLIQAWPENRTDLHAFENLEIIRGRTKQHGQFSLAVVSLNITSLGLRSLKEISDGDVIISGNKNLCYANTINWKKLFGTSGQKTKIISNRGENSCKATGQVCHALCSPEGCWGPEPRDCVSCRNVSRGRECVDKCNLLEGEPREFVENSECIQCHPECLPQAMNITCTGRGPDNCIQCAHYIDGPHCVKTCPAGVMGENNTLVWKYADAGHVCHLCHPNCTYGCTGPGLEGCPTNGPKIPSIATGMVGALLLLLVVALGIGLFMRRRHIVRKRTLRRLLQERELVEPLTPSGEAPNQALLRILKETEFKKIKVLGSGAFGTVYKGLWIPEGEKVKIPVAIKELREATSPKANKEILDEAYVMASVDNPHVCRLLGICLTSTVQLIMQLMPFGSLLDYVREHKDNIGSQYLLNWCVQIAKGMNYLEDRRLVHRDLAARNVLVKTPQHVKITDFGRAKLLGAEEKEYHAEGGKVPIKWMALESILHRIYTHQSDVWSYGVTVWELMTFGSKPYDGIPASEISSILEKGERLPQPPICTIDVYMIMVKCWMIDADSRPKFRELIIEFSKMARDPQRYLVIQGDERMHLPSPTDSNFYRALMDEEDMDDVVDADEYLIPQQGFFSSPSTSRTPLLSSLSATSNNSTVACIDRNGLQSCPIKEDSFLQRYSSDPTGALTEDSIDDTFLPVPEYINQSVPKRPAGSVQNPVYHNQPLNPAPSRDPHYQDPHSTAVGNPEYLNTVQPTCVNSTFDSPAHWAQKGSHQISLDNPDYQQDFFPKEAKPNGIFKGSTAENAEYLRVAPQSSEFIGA
T4 sequence (P00533 25-1210 T790M/L858R limits assumed): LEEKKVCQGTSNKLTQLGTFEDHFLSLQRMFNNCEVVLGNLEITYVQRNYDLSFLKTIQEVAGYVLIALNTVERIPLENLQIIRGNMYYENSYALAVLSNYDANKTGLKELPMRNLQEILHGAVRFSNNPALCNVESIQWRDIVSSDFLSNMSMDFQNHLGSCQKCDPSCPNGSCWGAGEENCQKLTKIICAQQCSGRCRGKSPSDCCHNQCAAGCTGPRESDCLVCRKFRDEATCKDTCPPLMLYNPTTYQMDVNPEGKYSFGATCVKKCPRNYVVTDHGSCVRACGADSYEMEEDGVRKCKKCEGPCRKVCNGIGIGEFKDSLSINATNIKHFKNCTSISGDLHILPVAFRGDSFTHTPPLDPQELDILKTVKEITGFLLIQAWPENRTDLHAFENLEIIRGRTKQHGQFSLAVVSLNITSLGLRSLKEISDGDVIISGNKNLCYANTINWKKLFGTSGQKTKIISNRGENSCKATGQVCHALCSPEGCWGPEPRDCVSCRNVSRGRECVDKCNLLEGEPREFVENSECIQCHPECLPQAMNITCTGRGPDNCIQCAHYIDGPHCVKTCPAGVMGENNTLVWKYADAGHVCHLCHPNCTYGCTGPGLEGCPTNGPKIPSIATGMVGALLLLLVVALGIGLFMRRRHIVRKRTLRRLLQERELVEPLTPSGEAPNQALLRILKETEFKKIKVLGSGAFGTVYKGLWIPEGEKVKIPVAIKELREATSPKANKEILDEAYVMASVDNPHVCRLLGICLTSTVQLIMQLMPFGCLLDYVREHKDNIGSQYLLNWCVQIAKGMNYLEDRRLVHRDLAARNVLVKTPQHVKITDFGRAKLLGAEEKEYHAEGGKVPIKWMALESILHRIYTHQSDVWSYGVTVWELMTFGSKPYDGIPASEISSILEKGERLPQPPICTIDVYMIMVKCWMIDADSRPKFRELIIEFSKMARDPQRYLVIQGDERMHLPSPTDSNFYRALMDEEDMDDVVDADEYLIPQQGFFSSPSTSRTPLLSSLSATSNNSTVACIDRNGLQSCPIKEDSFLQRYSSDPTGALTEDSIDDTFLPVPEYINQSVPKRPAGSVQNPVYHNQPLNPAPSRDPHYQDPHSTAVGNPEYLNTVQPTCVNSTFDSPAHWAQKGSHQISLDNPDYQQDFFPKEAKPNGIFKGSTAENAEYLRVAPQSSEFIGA
T3 sequence (P00533 whole entry, the tested form may be a part): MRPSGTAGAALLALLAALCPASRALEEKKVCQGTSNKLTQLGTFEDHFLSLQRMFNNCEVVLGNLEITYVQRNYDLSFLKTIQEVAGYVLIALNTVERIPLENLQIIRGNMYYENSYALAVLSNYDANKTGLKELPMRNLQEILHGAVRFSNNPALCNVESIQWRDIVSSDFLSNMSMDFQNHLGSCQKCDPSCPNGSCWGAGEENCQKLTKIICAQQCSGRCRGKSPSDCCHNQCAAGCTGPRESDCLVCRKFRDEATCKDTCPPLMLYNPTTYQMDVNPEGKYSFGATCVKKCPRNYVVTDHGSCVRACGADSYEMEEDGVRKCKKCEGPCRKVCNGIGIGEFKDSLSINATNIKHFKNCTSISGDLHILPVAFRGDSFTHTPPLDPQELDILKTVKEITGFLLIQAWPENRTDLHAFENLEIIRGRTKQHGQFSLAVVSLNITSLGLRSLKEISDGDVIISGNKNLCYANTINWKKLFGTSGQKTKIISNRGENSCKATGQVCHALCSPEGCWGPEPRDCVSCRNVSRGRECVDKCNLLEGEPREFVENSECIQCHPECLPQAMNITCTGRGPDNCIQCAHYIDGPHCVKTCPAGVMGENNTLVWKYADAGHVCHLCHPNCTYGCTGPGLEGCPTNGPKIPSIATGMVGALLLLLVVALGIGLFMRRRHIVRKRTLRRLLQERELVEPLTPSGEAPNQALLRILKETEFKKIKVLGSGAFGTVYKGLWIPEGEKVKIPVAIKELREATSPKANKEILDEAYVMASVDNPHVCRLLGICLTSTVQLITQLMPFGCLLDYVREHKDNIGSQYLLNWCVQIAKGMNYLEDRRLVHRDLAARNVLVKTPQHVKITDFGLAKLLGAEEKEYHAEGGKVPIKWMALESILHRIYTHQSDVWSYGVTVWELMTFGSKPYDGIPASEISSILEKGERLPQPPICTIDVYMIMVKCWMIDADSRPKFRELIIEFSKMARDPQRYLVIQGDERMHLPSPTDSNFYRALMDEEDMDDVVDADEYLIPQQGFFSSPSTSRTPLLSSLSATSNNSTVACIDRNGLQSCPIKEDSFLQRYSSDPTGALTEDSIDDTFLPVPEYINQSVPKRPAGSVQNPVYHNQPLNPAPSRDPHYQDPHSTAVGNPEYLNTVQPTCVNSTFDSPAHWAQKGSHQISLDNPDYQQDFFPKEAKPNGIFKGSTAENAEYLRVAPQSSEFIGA
T2 sequence (P00533 25-1210 L858R limits assumed): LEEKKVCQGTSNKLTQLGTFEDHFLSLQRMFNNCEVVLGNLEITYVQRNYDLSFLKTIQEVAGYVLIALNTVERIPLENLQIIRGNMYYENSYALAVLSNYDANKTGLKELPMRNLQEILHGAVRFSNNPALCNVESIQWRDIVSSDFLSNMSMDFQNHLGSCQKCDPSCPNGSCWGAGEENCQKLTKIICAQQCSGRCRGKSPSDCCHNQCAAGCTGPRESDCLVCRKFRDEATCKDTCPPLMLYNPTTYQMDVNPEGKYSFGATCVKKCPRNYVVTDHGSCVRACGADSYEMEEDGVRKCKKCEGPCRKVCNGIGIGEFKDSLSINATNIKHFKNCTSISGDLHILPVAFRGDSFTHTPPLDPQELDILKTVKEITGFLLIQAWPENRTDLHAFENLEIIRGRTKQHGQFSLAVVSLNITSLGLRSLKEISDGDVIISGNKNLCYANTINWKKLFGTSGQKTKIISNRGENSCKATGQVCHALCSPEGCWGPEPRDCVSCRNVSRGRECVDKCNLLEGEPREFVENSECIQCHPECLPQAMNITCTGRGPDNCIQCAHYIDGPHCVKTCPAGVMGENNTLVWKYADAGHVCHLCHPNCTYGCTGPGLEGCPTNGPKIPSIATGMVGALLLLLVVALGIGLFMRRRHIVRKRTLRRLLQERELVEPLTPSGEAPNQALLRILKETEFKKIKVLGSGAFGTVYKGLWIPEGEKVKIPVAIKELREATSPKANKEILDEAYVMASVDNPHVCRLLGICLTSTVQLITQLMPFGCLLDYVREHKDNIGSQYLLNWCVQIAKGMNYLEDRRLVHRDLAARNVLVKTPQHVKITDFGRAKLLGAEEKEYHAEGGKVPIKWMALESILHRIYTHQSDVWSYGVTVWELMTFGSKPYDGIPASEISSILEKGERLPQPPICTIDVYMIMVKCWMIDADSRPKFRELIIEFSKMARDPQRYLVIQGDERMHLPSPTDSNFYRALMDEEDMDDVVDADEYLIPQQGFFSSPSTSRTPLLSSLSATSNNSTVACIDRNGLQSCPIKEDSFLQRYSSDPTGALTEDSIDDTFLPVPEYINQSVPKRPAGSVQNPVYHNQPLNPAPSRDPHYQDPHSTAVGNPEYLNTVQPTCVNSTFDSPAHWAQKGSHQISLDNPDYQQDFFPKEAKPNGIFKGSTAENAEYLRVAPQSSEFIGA

Row | Compound | EC50 (BaF3 [1]) [nM] | EC50 (BaF3 [2]) [nM] | EC50 (BaF3 [4]) [nM] | EC50 (BaF3 [5]) [nM] | EC50 (BaF3 [3]) [nM] | further results
1 | CSc1nc(-c2cccc(NC(=O)c3cccc(O)c3CN3Cc4ccccc4C3=O)c2)c(-c2ccnc(Nc3ccc(N4CCNCC4)cc3)c2)[nH]1 | > 10000 | > 10000 | > 10000 | > 10000 | > 10000 | –
2 | CCc1nc(-c2cccc(NC(=O)c3cccc(O)c3CN3Cc4ccccc4C3=O)c2)c(-c2ccnc(NC(C)=O)c2)[nH]1 | > 10000 | > 10000 | > 10000 | > 10000 | – | –
3 | CSc1nc(-c2cccc(NC(=O)c3ccccc3CN3Cc4ccccc4C3=O)c2)c(-c2ccnc(NC(C)=O)c2)[nH]1 | – | – | – | – | – | IC50 [6]: 450 nM; IC50 [7]: 120 nM; IC50 [8]: > 1000 nM; IC50 [9]: 460 nM
4 | CS(=O)(=O)CCNCc1ccc(-c2ccc3ncnc(Nc4ccc(OCc5cccc(F)c5)c(Cl)c4)c3c2)o1 [LAPATINIB] | – | – | – | – | – | EC50 (cells): > 10000 nM; EC50 (HCC827): > 10000 nM
5 | C=CC(=O)Nc1ccc(OC)c(Nc2cc(-c3[nH]c(SC)nc3-c3cccc(NC(=O)c4ccccc4CN4Cc5ccccc5C4=O)c3)ccn2)c1 | 170 | 880 | 1700 | 1400 | > 10000 | IC50 [10]: > 1000 nM; Ki [11]: 310 nM; Ki [12]: 234 nM; Ki [13]: 814 nM
6 | CCc1nc(-c2cccc(NC(=O)c3cccc(O)c3CN3Cc4ccccc4C3=O)c2)c(-c2ccnc(Nc3ccccc3)c2)[nH]1 | 3900 | > 10000 | > 10000 | – | > 10000 | –
7 | C=CC(=O)Nc1ccc(OC)c(Nc2cc(-c3[nH]c(SC)nc3-c3cccc(NC(=O)c4c(F)cccc4CN4Cc5ccccc5C4=O)c3)ccn2)c1 | 180 | 1100 | 720 | 530 | > 10000 | IC50 [10]: 340 nM
8 | C=CC(=O)Nc1ccc(OC)c(Nc2cc(-c3[nH]c(SC)nc3-c3cccc(NC(=O)c4c(F)ccc(O)c4CN4Cc5ccccc5C4=O)c3)ccn2)c1 | 370 | 1200 | 1100 | 1400 | > 10000 | IC50 [10]: 1.6 nM
9 | C=CC(=O)Nc1ccc(OC)c(Nc2cc(-c3[nH]c(CC)nc3-c3cccc(NC(=O)c4cccc(O)c4CN4Cc5ccccc5C4=O)c3)ccn2)c1 | 220 | 590 | 1000 | 1500 | 2100 | EC50 (cells): 300 nM; Drug metabolism [14]: metabolite_notdetected; IC50 [10]: 0.91 nM; Stability [15]: Stable; EC50 (HCC827): 290 nM

More lines, main results first:

Row | EC50 (BaF3 [1]) [nM] | EC50 (BaF3 [2]) [nM] | EC50 (BaF3 [4]) [nM] | EC50 (BaF3 [5]) [nM] | Compound | EC50 (BaF3 [3]) [nM] | further results
10 | 1000 | > 10000 | 1100 | 1800 | CCC(=O)Nc1ccc(OC)c(Nc2cc(-c3[nH]c(SC)nc3-c3cccc(NC(=O)c4cccc(O)c4CN4Cc5ccccc5C4=O)c3)ccn2)c1 | 1700 | EC50 (HCC827): 270 nM
11 | > 10000 | > 10000 | > 10000 | > 10000 | CCOc1nc(-c2cccc(NC(=O)c3cccc(O)c3CN3Cc4ccccc4C3=O)c2)c(-c2ccnc(NC(C)=O)c2)[nH]1 | – | –
12 | > 10000 | > 10000 | > 10000 | > 10000 | CSc1nc(-c2cccc(NC(=O)c3cccc(O)c3CN3Cc4ccccc4C3=O)c2)c(-c2ccnc(NC(C)=O)c2)[nH]1 | – | –
13 | > 10000 | > 10000 | > 10000 | 4000 | CSc1nc(-c2cccc(NC(=O)c3cccc(O)c3CN3Cc4ccccc4C3=O)c2)c(-c2ccnc(Nc3ccccc3)c2)[nH]1 | – | –
14 | 2900 | > 10000 | > 10000 | > 10000 | CCOc1nc(-c2cccc(NC(=O)c3cccc(O)c3CN3Cc4ccccc4C3=O)c2)c(-c2ccnc(Nc3ccccc3)c2)[nH]1 | – | –
